Molecules are shown by their SMILES. ≈ marks a conversion by molar mass, not a printed value.

What all share (assay): ≥ marks a high value that may be exact or a test limit, other limits are often not marked, values filed in µg/mL are converted to µM
Assay [1] relates to Bacillus megaterium Bm11.
For assay [2], the system named is Candida albicans ATCC 10231.
Assay [3] relates to Escherichia coli ATCC 25922.
Assay [4] concerns Staphylococcus aureus Cowan 1.
The subject of assay [5] is Staphylococcus capitis 1.
Assay [6] relates to Yersinia pseudotuberculosis YPIII.
In assay [7] the test system is Bacillus subtilis ATCC 6633.
The test system of assay [8] is Listeria monocytogenes ATCC 7644.
Assay [9] has as its system Salmonella enterica subsp. enterica serovar Typhi ATCC 6399.
Assay [10] deals with Shigella flexneri.
Assay [11] concerns Staphylococcus aureus ATCC 25923.
Assay [12] deals with Streptococcus agalactiae.
Assay [13] deals with Bacillus subtilis 168.
Assay [14] has as its system Candida albicans F7-39/IDE99.
The test system of assay [15] is Escherichia coli B.
Assay [16] has as its system Micrococcus luteus CCM 144.
Assay [17] deals with Pseudomonas aeruginosa ATCC 27853.
Assay [18] relates to Pseudomonas aeruginosa.
For assay [19], the system named is Staphylococcus aureus 1.
The test system of assay [20] is Staphylococcus aureus ATCC 43300.
Assay [21] relates to Staphylococcus aureus.
The test system of assay [22] is Staphylococcus epidermidis.

On to `CC[C@H](C)[C@H](NC(=O)CNC(=O)[C@H](CO)NC(=O)[C@H](CC(C)C)NC(=O)[C@@H](NC(=O)[C@H](CCCN=C(N)N)NC(=O)CNC(=O)[C@@H](NC(=O)[C@H](CC(C)C)NC(=O)[C@H](C)NC(=O)[C@H](CC(C)C)NC(=O)[C@@H](N)Cc1ccccc1)[C@@H](C)CC)C(C)C)C(=O)N[C@@H](CC(C)C)C(N)=O` [FLALIGRVLSGIL], for which the minimal inhibitory concentration (MIC) in assay [1] is 2.5 µM (≈ 3.43 µg/mL); in assay [2] it was 1.25 µM (≈ 1.71 µg/mL); in [3], > 40 µM; in assay [4], 2.5 µM (≈ 3.43 µg/mL); in [5], 2.5 µM (≈ 3.43 µg/mL); in [6], 20 µM (≈ 27.4 µg/mL).

In the case of `CC[C@H](C)[C@H](NC(=O)[C@H](CC(C)C)NC(=O)[C@H](CCCCN)NC(=O)[C@H](CC(C)C)NC(=O)[C@H](C)NC(=O)CNC(=O)[C@H](CCCCN)NC(=O)[C@H](C)NC(=O)[C@H](CC(C)C)NC(=O)[C@H](C)NC(=O)CNC(=O)[C@H](Cc1c[nH]c2ccccc12)NC(=O)[C@@H](N)Cc1ccccc1)C(=O)NCC(=O)N[C@H](C(=O)N[C@@H](CO)C(=O)N[C@@H](CC(C)C)C(=O)N[C@@H](Cc1ccccc1)C(=O)N[C@@H](CO)C(=O)N[C@@H](CO)C(=O)N[C@@H](Cc1ccccc1)C(=O)N[C@@H](CO)C(=O)N[C@@H](CCCCN)C(=O)N[C@@H](CCCCN)C(=O)N[C@@H](CC(=O)O)C(=O)O)C(C)C` [FWGALAKGALKLIGVSLFSSFSKKD], the minimal inhibitory concentration (MIC) in assay [7] was ≥ 300 µM; in assay [3], 300 µM (≈ 801 µg/mL); in assay [8], ≥ 300 µM; in assay [9] it was ≥ 300 µM; in assay [10], ≥ 300 µM; in assay [11], 300 µM (≈ 801 µg/mL). Moreover, the MIC in assay [12] was ≥ 300 µM.

`CC[C@H](C)[C@H](NC(=O)[C@H](CC(C)C)NC(=O)[C@H](CCCCN)NC(=O)[C@H](CC(C)C)NC(=O)[C@H](C)NC(=O)CNC(=O)[C@H](CCCCN)NC(=O)[C@H](C)NC(=O)[C@H](CC(C)C)NC(=O)[C@H](C)NC(=O)CNC(=O)[C@H](Cc1c[nH]c2ccccc12)NC(=O)[C@@H](N)Cc1ccccc1)C(=O)N[C@H](C(=O)NCC(=O)N[C@@H](CO)C(=O)N[C@@H](CC(C)C)C(=O)N[C@@H](Cc1ccccc1)C(=O)N[C@@H](CO)C(=O)N[C@@H](CO)C(=O)N[C@@H](Cc1ccccc1)C(=O)N[C@@H](CO)C(=O)N[C@@H](CCCCN)C(=O)N[C@@H](CCCCN)C(=O)N[C@@H](CC(=O)O)C(=O)O)C(C)C` [FWGALAKGALKLIVGSLFSSFSKKD]: the MIC is ≥ 300 µM in assay [7]; 300 µM (≈ 801 µg/mL) in assay [3]; ≥ 300 µM in [8]; ≥ 300 µM in assay [9]; ≥ 300 µM in [10]; 300 µM (≈ 801 µg/mL) in assay [11]. Also, the MIC in assay [12] is ≥ 300 µM.

As for `CC[C@H](C)[C@H](NC(=O)CN)C(=O)N[C@@H](CCSC)C(=O)N[C@@H](CO)C(=O)N[C@@H](CO)C(=O)N[C@@H](CC(C)C)C(=O)N[C@@H](CCSC)C(=O)N[C@@H](CCCCN)C(=O)N[C@@H](CCCCN)C(=O)N[C@@H](CC(C)C)C(=O)N[C@@H](C)C(=O)N[C@@H](CCCCN)C(=O)N[C@@H](Cc1cnc[nH]1)C(=O)N[C@H](C(=O)N[C@@H](C)C(=O)N[C@@H](CCCCN)C(N)=O)[C@@H](C)CC` [GIMSSLMKKLAKHIAK], the minimum inhibitory concentration (MIC) in [13] is 7 µM (≈ 12.3 µg/mL); in assay [14] it was 14 µM (≈ 24.6 µg/mL); in [15] it was 15 µM (≈ 26.3 µg/mL); in assay [16], 3 µM (≈ 5.27 µg/mL); in assay [17] it was 7.9 µM (≈ 13.9 µg/mL); in assay [18], 20 µM (≈ 35.1 µg/mL). For the same compound, the MIC in assay [19] is ≥ 35 µM; in assay [20], 63 µM (≈ 111 µg/mL); in [21], 63 µM (≈ 111 µg/mL); in assay [22], 6.2 µM (≈ 10.9 µg/mL).
